Test systems include HL-60(TB) leukemia; SK-OV-3 ovarian; DU-145 prostate; MOLT-4 leukemia; OVCAR-8 ovarian; HCT-116 colon; T-47D breast; SK-MEL-2 melanoma; KM20L2 colon; LXFL 529 NSCLC; SNB-78 CNS; DLD-1 colon.
What all share (assay): DTP human tumour cell line panel, 48 h

SMILES strings stand for the structures.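 Method: 48-hour compound exposure of cells in 96-well plates, five concentrations, linear interpolation of endpoints. GI50: concentration for 50% inhibition of growth. Definition used: TGI = concentration required for complete inhibition of growth.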

On to `C=C(C)[C@@H]1CC[C@]2(C(=O)Nc3ccccn3)CC[C@]3(C)[C@H](CC[C@@H]4[C@@]5(C)CCCNC(C)(C)[C@@H]5CC[C@]43C)[C@@H]12`, for which the GI50 – broadly, the concentration at which growth is held to half of that of the control – was 1820 nM in the assay with HL-60(TB) leukemia, 2940 nM in the assay on SK-OV-3 ovarian and 1810 nM in the assay with DU-145 prostate. The TGI (usually the concentration at which net growth stops) in the assay on HL-60(TB) leukemia amounted to 4.28 µM; with SK-OV-3 ovarian, 14.1 µM; in the assay on DU-145 prostate it was 3.42 µM.
Consider `Nc1ccc(OCC(O)N2C(=O)c3ccccc3C2=O)cc1` (configuration not stated), for which the concentration for total growth inhibition (TGI) in the assay with MOLT-4 leukemia, with HL-60(TB) leukemia, in the assay with OVCAR-8 ovarian, with SK-OV-3 ovarian, with DU-145 prostate and in the assay with HCT-116 colon was more than 100 µM throughout. Moreover, in the assay on T-47D breast, the concentration for total growth inhibition (TGI) is more than 100 µM.
For the compound `COc1ccc2c(c1)CCC(CN1CCN(CCOC(c3ccc(F)cc3)c3ccc(F)cc3)CC1)C2O` (configuration not stated), the TGI in the assay on MOLT-4 leukemia was found to be 36.2 µM; with HL-60(TB) leukemia, 14.6 µM; with OVCAR-8 ovarian, 27.4 µM; in the assay with SK-OV-3 ovarian it was 31.5 µM; in the assay on DU-145 prostate it was 34.8 µM; in the assay with HCT-116 colon it was 23.8 µM. Further, the TGI turned out to be 30.8 µM in the assay with SK-MEL-2 melanoma and 39 µM in the assay on T-47D breast.
Consider `COc1ccc2[nH]c3c([N+](=O)[O-])ccc(Cl)c3c(=O)c2c1`, for which the TGI in the assay on MOLT-4 leukemia was 12.8 µM; in the assay with HL-60(TB) leukemia, 9.84 µM; in the assay on OVCAR-8 ovarian it was more than 74 µM; in the assay on SK-OV-3 ovarian, more than 100 µM; in the assay with DU-145 prostate, more than 100 µM; with HCT-116 colon it was 27.4 µM. The values for the TGI in the assay on SK-MEL-2 melanoma and in the assay on T-47D breast were 58.5 µM and more than 84.7 µM, respectively.
Regarding `CC(C)(C)C1(c2ccc(C3(c4ccccc4)Oc4ccccc4S3)[nH]2)Oc2ccccc2S1` (configuration not stated), the TGI with MOLT-4 leukemia, in the assay on KM20L2 colon, in the assay on HL-60(TB) leukemia, in the assay on LXFL 529 NSCLC, with OVCAR-8 ovarian and with SK-OV-3 ovarian was more than 100 µM throughout. Further, the TGI in the assay with SNB-78 CNS, in the assay with DLD-1 colon, in the assay with HCT-116 colon and with SK-MEL-2 melanoma was more than 100 µM throughout.
As to `C=C1CC23CCC4C(C)(C(=O)O)CCCC4(C)C2CCC1C3` (configuration not stated), the total growth inhibition concentration (TGI) with OVCAR-8 ovarian, in the assay with SK-OV-3 ovarian, in the assay with DU-145 prostate, with HCT-116 colon, in the assay with SK-MEL-2 melanoma and in the assay with T-47D breast was more than 100 µM each time.
Take `Cc1ccc(P(c2ccc(C)cc2)c2ccc(C)cc2)cc1`: the TGI was 44.5 µM with MOLT-4 leukemia; more than 100 µM in the assay on HL-60(TB) leukemia; 59.6 µM with OVCAR-8 ovarian; 95.9 µM in the assay on SK-OV-3 ovarian; 40.1 µM in the assay on DU-145 prostate; 28.2 µM in the assay on HCT-116 colon. The results for the TGI in the assay on SK-MEL-2 melanoma and in the assay on T-47D breast were 57.9 µM and more than 100 µM, respectively.
On to `COC1/C=C\OC2(C)Oc3c(C)c(O)c4c(O)c(c(/C=N\OCCCc5ccccc5)c(O)c4c3C2=O)NC(=O)/C(C)=C\C=C/C(C)C(O)C(C)C(O)C(C)C(OC(C)=O)C1C` (configuration not stated), for which the total growth inhibition concentration (TGI) was determined as 10.5 µM in the assay on MOLT-4 leukemia; 5.38 µM with HL-60(TB) leukemia; 17.8 µM with OVCAR-8 ovarian; 15.4 µM in the assay with SK-OV-3 ovarian; 15.7 µM with DU-145 prostate; 5.26 µM in the assay on HCT-116 colon. For the same compound, the TGI amounted to 5.35 µM with SK-MEL-2 melanoma and 15.6 µM in the assay with T-47D breast.
Take `O=Nc1ccc(O)c2ncccc12`: the TGI with MOLT-4 leukemia is more than 100 µM; in the assay with KM20L2 colon, 89.9 µM; in the assay with HL-60(TB) leukemia, more than 41.6 µM; with LXFL 529 NSCLC it was 12.9 µM; with OVCAR-8 ovarian, more than 34.1 µM; in the assay with SK-OV-3 ovarian, 31.3 µM. Moreover, the TGI with SNB-78 CNS was 11.4 µM; with DU-145 prostate, 65.9 µM; in the assay with DLD-1 colon it was 25.3 µM; in the assay with HCT-116 colon, 3.04 µM; in the assay with SK-MEL-2 melanoma, 6.39 µM; with T-47D breast, 33.1 µM.
For the compound `C=C1C(=O)CCC1C(=O)O` (configuration not stated), the TGI in the assay on MOLT-4 leukemia, with HL-60(TB) leukemia, in the assay with OVCAR-8 ovarian, in the assay on SK-OV-3 ovarian, in the assay with DU-145 prostate and in the assay on HCT-116 colon was more than 100 µM each time. Besides, the TGI in the assay on SK-MEL-2 melanoma and in the assay on T-47D breast was more than 100 µM each time.
For the compound `C[C@H](C(=O)N[C@@H](Cc1ccc(-c2ccccc2)cc1)C(=O)NC1CC(C)(C)N(C)C(C)(C)C1)c1ccc(-c2ccccc2)c(F)c1`, in the assay with DU-145 prostate, the GI50 is 1580 nM and the TGI turned out to be 3 µM. In the assay on SK-MEL-2 melanoma, the GI50 was 1610 nM and the TGI was determined as 3.55 µM.
For `C=C(C)C1CC2=C(O1)C(=O)c1ccccc1C2=O` (configuration not stated), the TGI with MOLT-4 leukemia is 32.8 µM; with HL-60(TB) leukemia, 15 µM; with LXFL 529 NSCLC, 31.4 µM; with OVCAR-8 ovarian, 35.6 µM; in the assay on SK-OV-3 ovarian it was more than 100 µM; in the assay on SNB-78 CNS it was 39.9 µM. The TGI with DLD-1 colon is 52.1 µM.
With `Nc1nc(N)c2ncn(-c3ccc(Cl)c(Cl)c3)c2n1`, the TGI with MOLT-4 leukemia is 42.5 µM; in the assay on OVCAR-8 ovarian, more than 100 µM; in the assay with SK-OV-3 ovarian, more than 100 µM; in the assay with DU-145 prostate, more than 100 µM; in the assay with HCT-116 colon it was 40.3 µM; in the assay with SK-MEL-2 melanoma, 28 µM. The same compound displayed a total growth inhibition concentration (TGI) with T-47D breast of more than 100 µM.
On to `O=[N+]([O-])c1ccc(/C=N\Nc2ccc([N+](=O)[O-])cn2)cc1`, for which the TGI in the assay with MOLT-4 leukemia, in the assay with HL-60(TB) leukemia, with OVCAR-8 ovarian, in the assay with SK-OV-3 ovarian, in the assay with DU-145 prostate and in the assay on HCT-116 colon was more than 100 µM in each case. Further, the TGI with SK-MEL-2 melanoma and in the assay on T-47D breast was more than 100 µM in each case.

These data come from PubChem BioAssay (NCI).
